Measured values published in patent publication US20210355104A1, “ADENOSINE RECEPTOR BINDING COMPOUNDS” (Nikang Therapeuticsm Inc., priority 2018, published 2021).
Several values for one entry are separate records, joined by “and”; a condition that tells them apart may be missing. Equal values may be shown once. Read-outs that look alike come from different tables or passages of the source.

Columns and labels:
[1] = system: p-CREB (phosphorylated cAMP response-element binding protein) in human whole blood; experiment: p-CREB assay in human whole blood by flow cytometry (NECA stimulation, CD4 staining); type: cell-based
Procedure: Assay protocol for p-CREB (phosphorylated cAMP response-element binding protein) in human whole blood by flow cytometry
Fresh human whole blood (Biological Specialty Corporation) was added at 100 ul per wellinto a 96-well plate and treated with test compounds (Serial dilutions of 1:3 with starting concentration at 30 uM, 11 concentrations total, in the presence of adenosine deaminase) for one hour at room temperature on a plate shaker. Then 10 ul of 10× NECA (50 uM stock in PBS) and 10 ul of 10 × Rolipram (50 uM stock in PBS) were added, with designated wells for unstimulated (Rolipram+DMSO) and stimulated (Rolipram+NECA+DMSO) conditions. The plates were mixed well and incubated at room temperature for 30 min on a plate shaker. 1× lyse/Fix buffer (5× stock, BD #558049) was warmed to 37° in a water bath. 1200 ul of pre-warmed 1× lyse/Fix buffer was then added to the plate, which was then sealed and mixed by inverting the plate a few times. The plate was then incubated for 30 min at 37° in a water bath. After incubation, the plate was centrifuged at 1600 rpm for 5 min and the supernatant was decanted, then 1200 ul PBS was added and the plate was mixed by inverting a few times followed by centrifuging at 1600 rpm for 5 min and again decanting the supernatant. Then, 200 ul FIX PERM buffer II (BD #558052) was added and the plate was mixed well, then kept on ice for 45 min After spinning the plate at 1600 rpm for 5 min the supernatant was again decanted. Then was added 200 ul staining buffer (BD #554657), and the plate was mixed well and spun at 1600 rpm for 5 min, then the supernatant was again decanted. 200 ul staining buffer was added, the plate was mixed well and the plate was sealed at this step for storage at 4° overnight or until staining. Before staining, the plate was spun at 1600 rpm for 5 min and the supernatant was again decanted. Antibody mix in staining buffer was prepared (75 ul/well, 1:50 dilution for p-CREB antibody from Cell Signaling Tech #14001S, 1:200 dilution for CD4 antibody from BD #566320) and the cells were resuspended in the above antibody mix solution. After mixing well, the plate was incubated (shielded from light) at room temperature for two hours on a plate shaker. It was then spun at 1600 rpm for 5 min and the supernatant was decanted. 200 ul staining buffer was then added to wash cells, and the plate was then mixed by shaking or pipetting. The wash step was repeated at least one more time, and after the final wash, cells were resusptended in 200 ul staining buffer in U bottom plate for flow cytometry analysis.

Adenosine A2A receptor = Adenosine A2A receptor (Homo sapiens, UniProt P29274); experiment: cAMP assay in 293A cells stably expressing the adenosine A2A receptor (CGS21680 stimulation, HTRF); type: cell-based; design: expressed in transfected cells; host or cells: 293A cells (Invitrogen, Cat# R705-07) infected with A2A-expressing lentivirus (custom packaged by Biosettia), puromycin selected; conditions: 293A-A2AR cells, 0.1% BSA
[2] = 1 uM CGS, read-out: cAMP (nM) 0.1% BSA, 1 uM CGS

Chain of Adenosine A2A receptor (P29274 whole entry): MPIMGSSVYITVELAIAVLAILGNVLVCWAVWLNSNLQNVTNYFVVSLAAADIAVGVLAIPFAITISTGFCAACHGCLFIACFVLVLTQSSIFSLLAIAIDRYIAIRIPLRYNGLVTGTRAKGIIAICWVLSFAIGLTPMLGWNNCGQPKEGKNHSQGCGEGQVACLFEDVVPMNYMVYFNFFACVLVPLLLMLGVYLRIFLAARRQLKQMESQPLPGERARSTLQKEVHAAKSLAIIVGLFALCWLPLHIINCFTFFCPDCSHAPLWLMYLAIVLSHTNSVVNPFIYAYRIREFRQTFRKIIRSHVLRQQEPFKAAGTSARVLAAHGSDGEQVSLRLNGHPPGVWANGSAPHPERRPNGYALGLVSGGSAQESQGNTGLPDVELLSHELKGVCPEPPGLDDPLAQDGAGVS

| SMILES | IC50 ([1]; Homo sapiens, values separated by / are repeat determinations) [nM] | IC50 (Adenosine A2A receptor; 8 nM CGS, values separated by / are repeat determinations, read-out: cAMP (nM) 0.1% BSA, 8 nM CGS) | IC50 (Adenosine A2A receptor; 1 uM CGS, values separated by / are repeat determinations, read-out: cAMP (nM) 0.1% BSA, 1 uM CGS) | IC50 ([1]; Homo sapiens) [nM] | IC50 (Adenosine A2A receptor; [2]) | IC50 [1] [nM] |
| --- | --- | --- | --- | --- | --- | --- |
| Cc1cc(-c2c(OCc3nccn3C(C)C)nc(N)nc2-c2ccc(F)cc2)cc(C(F)F)n1 [Example 99, 5-(2-(difluoromethyl)-6-methylpyridin-4-yl)-4-(4-fluorophenyl)-6-((1-isopropyl-1H-imidazol-2-yl)methoxy)pyrimidin-2-amine] | 47 | 0.064 nM and 0.19 nM | 32 nM and 22 nM |  |  |  |
| CCn1nccc1COc1nc(N)nc(-c2ccc(F)cc2)c1-c1cc(C)nc(C(F)F)c1 [Example 227, 5-(2-(difluoromethyl)-6-methylpyridin-4-yl)-4-((1-ethyl-1H-pyrazol-5-yl)methoxy)-6-(4-fluorophenyl)pyrimidin-2-amine] |  |  |  | 17.8 | 29 nM and 97 nM and 71 nM |  |
| Cc1cc(-c2c(OCc3cccc(C(C)(C)C#N)n3)nc(N)nc2-c2ccc(F)cc2)cc(C(F)F)n1 [Example 230, 2-(6-(((2-amino-5-(2-(difluoromethyl)-6-methylpyridin-4-yl)-6-(4-fluorophenyl)pyrimidin-4-yl)oxy)methyl)pyridin-2-yl)-2-methylpropanenitrile] |  |  |  | 32.4 | 7 nM and 40 nM and 64 nM | 37.6 |
| Cc1cc(-c2c(OCc3ncccc3C(C)(C)O)nc(N)nc2-c2ccc(F)cc2)cc(C(F)F)n1 [Example 238] |  |  |  | 36.3 | 313 nM |  |
| Cc1cc(-c2c(OCc3nnn(C)n3)nc(N)nc2-c2ccc(F)cc2)cc(C(F)F)n1 [Example 241, 5-(2-(difluoromethyl)-6-methylpyridin-4-yl)-4-(4-fluorophenyl)-6-((2-methyl-2H-tetrazol-5-yl)methoxy)pyrimidin-2-amine] |  |  |  | 221 | 213 nM |  |
| Cc1cc(-c2c(OCc3cc(C(C)(C)C#N)ccn3)nc(N)nc2-c2ccc(F)cc2)cc(C(F)F)n1 [Example 257, 2-(2-(((2-amino-5-(2-(difluoromethyl)-6-methylpyridin-4-yl)-6-(4-fluorophenyl)pyrimidin-4-yl)oxy)methyl)pyridin-4-yl)-2-methylpropanenitrile] |  |  |  | 19 | 250 nM and 171 nM |  |
| Cc1cc(-c2c(OCc3cccc(C(C)(C)C(=O)O)n3)nc(N)nc2-c2ccc(F)cc2)cc(C(F)F)n1 [Example 263, 2-(6-(((2-amino-5-(2-(difluoromethyl)-6-methylpyridin-4-yl)-6-(4-fluorophenyl)pyrimidin-4-yl)oxy)methyl)pyridin-2-yl)-2-methylpropanoic acid] |  |  |  | 82 | 33 nM and 168 nM and 95 nM and 126 nM | 114 |
| Cc1cc(-c2c(OCc3cccc(N(C)C)n3)nc(N)nc2-c2ccc(F)cc2)cc(C(F)F)n1 [Example 282, 5-(2-(difluoromethyl)-6-methylpyridin-4-yl)-4-((6-(dimethylamino)pyridin-2-yl)methoxy)-6-(4-fluorophenyl)pyrimidin-2-amine] |  |  |  | 50 | 90 nM and 21 nM and 100 nM |  |
| Cc1cc(-c2c(OC3CCn4ccnc43)nc(N)nc2-c2ccc(F)cc2)cc(C(F)F)n1 (centres unmarked) [Example 284, 5-(2-(difluoromethyl)-6-methylpyridin-4-yl)-4-((6,7-dihydro-5H-pyrrolo[1,2-a]imidazol-7-yl)oxy)-6-(4-fluorophenyl)pyrimidin-2-amine] |  |  |  | 392 | 382 nM and 289 nM |  |
| Cc1cc(-c2c(OCc3ccnnc3)nc(N)nc2-c2ccc(F)cc2)cc(C(F)F)n1 [Example 285, 5-(2-(difluoromethyl)-6-methylpyridin-4-yl)-4-(4-fluorophenyl)-6-(pyridazin-4-ylmethoxy)pyrimidin-2-amine] |  |  |  | 179 | 378 nM and 272 nM |  |
| Cc1cc(-c2c(OCc3cccc(OCCO)n3)nc(N)nc2-c2ccc(F)cc2)cc(C(F)F)n1 [Example 305] |  |  |  | 61.7 | 196 nM |  |
| Cc1cc(-c2c(OCc3nccn3C(F)F)nc(N)nc2-c2ccc(F)cc2)cc(C(F)F)n1 [Example 306, 4-((1-(difluoromethyl)-1H-imidazol-2-yl)methoxy)-5-(2-(difluoromethyl)-6-methylpyridin-4-yl)-6-(4-fluorophenyl)pyrimidin-2-amine] |  |  |  | 6.9 | 26 nM and 23 nM |  |
| Cc1cc(-c2c(OCc3cccc(C4CC4)n3)nc(N)nc2-c2ccc(F)cc2)cc(C(F)F)n1 [Example 326, 4-((6-cyclopropylpyridin-2-yl)methoxy)-5-(2-(difluoromethyl)-6-methylpyridin-4-yl)-6-(4-fluorophenyl)pyrimidin-2-amine] |  |  |  | 57.1 | 90 nM and 144 nM and 84 nM |  |
| Cc1cc(-c2c(OCCN(C)c3cccc(C(C)(C)C(=O)O)n3)nc(N)nc2-c2ccc(F)cc2)cc(C(F)F)n1 [Example 339, 2-(6-((2-((2-amino-5-(2-(difluoromethyl)-6-methylpyridin-4-yl)-6-(4-fluorophenyl)pyrimidin-4-yl)oxy)ethyl)(methyl)amino)pyridin-2-yl)-2-methylpropanoic acid] |  |  |  | 166 | 561 nM and 795 nM and 230 nM |  |
| Cc1cc(-c2c(OCc3nccs3)nc(N)nc2-c2ccc(F)cc2)cc(C(F)F)n1 [Example 350, 5-(2-(difluoromethyl)-6-methylpyridin-4-yl)-4-(4-fluorophenyl)-6-(thiazol-2-ylmethoxy)pyrimidin-2-amine] |  |  |  | 4 | 26.1 nM and 5.9 nM and 30 nM |  |

The remaining molecules from weak to strong by IC50 ([1]; Homo sapiens), led by results:

| IC50 ([1]; Homo sapiens, values separated by / are repeat determinations) [nM] | IC50 (Adenosine A2A receptor; 8 nM CGS, values separated by / are repeat determinations, read-out: cAMP (nM) 0.1% BSA, 8 nM CGS) | IC50 (Adenosine A2A receptor; 1 uM CGS, values separated by / are repeat determinations, read-out: cAMP (nM) 0.1% BSA, 1 uM CGS) | IC50 ([1]; Homo sapiens) [nM] | IC50 (Adenosine A2A receptor; [2]) | IC50 [1] [nM] | SMILES |
| --- | --- | --- | --- | --- | --- | --- |
|  |  |  | 521 | 278 nM and 228 nM |  | Cc1cc(-c2c(OCc3ccnc(OCCO)n3)nc(N)nc2-c2ccc(F)cc2)cc(C(F)F)n1 [Example 297, 2-((4-(((2-amino-5-(2-(difluoromethyl)-6-methylpyridin-4-yl)-6-(4-fluorophenyl)pyrimidin-4-yl)oxy)methyl)pyrimidin-2-yl)oxy)ethan-1-ol] |
|  |  |  | 141 | 13 nM and 26 nM and 8.7 nM |  | Cc1cc(-c2c(OCCN(C)c3cccc(C(C)(C)C#N)n3)nc(N)nc2-c2ccc(F)cc2)cc(C(F)F)n1 [Example 320] |
|  |  |  | 128 | 87 nM and 249 nM and 153 nM |  | CCn1c(COc2nc(N)nc(-c3ccc(F)cc3)c2-c2cc(C)nc(C(F)F)c2)nc2cccnc21 [Example 329, 5-(2-(difluoromethyl)-6-methylpyridin-4-yl)-4-((3-ethyl-3H-imidazo[4,5-b]pyridin-2-yl)methoxy)-6-(4-fluorophenyl)pyrimidin-2-amine] |
|  |  |  | 71.5 | 20 nM and 64 nM |  | Cc1cc(-c2c(OCCc3ccccn3)nc(N)nc2-c2ccc(F)cc2)cc(C(F)F)n1 [Example 313, 5-(2-(difluoromethyl)-6-methylpyridin-4-yl)-4-(4-fluorophenyl)-6-(2-(pyridin-2-yl)ethoxy)pyrimidin-2-amine] |
|  |  |  | 55 | 261 nM and 120 nM |  | Cc1cc(-c2c(OCCc3cccc(C(C)(C)O)n3)nc(N)nc2-c2ccc(F)cc2)cc(C(F)F)n1 [Example 349, 2-(6-(2-((2-amino-5-(2-(difluoromethyl)-6-methylpyridin-4-yl)-6-(4-fluorophenyl)pyrimidin-4-yl)oxy)ethyl)pyridin-2-yl)propan-2-ol] |
|  |  |  | 24.8 | 1.8 nM and 15 nM |  | CCn1c(COc2nc(N)nc(-c3ccc(F)cc3)c2-c2cc(C)nc(C(F)F)c2)nc2ccccc21 [Example 315, 5-(2-(difluoromethyl)-6-methylpyridin-4-yl)-4-((1-ethyl-1H-benzo[d]imidazol-2-yl)methoxy)-6-(4-fluorophenyl)pyrimidin-2-amine] |
|  |  |  | 9.8 | 0.4 nM and 1 nM |  | Cc1cc(-c2c(OCc3nc4ccccc4n3C)nc(N)nc2-c2ccc(F)cc2)cc(C(F)F)n1 [Example 314, 5-(2-(difluoromethyl)-6-methylpyridin-4-yl)-4-(4-fluorophenyl)-6-((1-methyl-1H-benzo[d]imidazol-2-yl)methoxy)pyrimidin-2-amine] |
